Test results taken from paper PMC5522996, “Big conductance calcium‐activated potassium channel openers control spasticity without sedation” (British Journal of Pharmacology, 2017).
Entries after “also recorded” stand apart in the source; their conditions may differ.

Legend:
[1] = tested on: mouse vas deferens; test: βγ‐methylene ATP‐induced contraction of electrically unstimulated vas deferens; type: cell-based; details: 100 nM, 30 min before βγ‐methylene ATP
[2] = tested on: healthy humans; test: Phase I single dose: haematology and serum chemistry; type: in vivo, human; details: Day 2
[3] = tested on: TA100; test: Bacterial reverse mutation, revertants per plate; type: cell-based, Salmonella typhimurium
Procedure: (§1) Strain of Organism Treatment Dose Revertants per plate
(§2) First Mutation without Metabolic Stimulation
(§3) Second Mutation without Metabolic Stimulation
(§4) VSN16R was incubated at various concentrations with either TA1535, TA1537, TA98 and TA100 strains of Salmonella typhimurium, which carry mutations in genes involved in histidine synthesis, and WP2uvvA Escherichia coli. The bacteria are spread on agar plates with limiting histidine content and incubated for 48 h. The number of histidine gene negative to positive revertants was assessed in two experiments. The results represent the mean ± SD. n=3/group. This was performed by Charles

[4] = tested on: TA1535; test: Bacterial reverse mutation, revertants per plate; type: cell-based, Salmonella typhimurium
Procedure: as §1, §2, §3, §4

[5] = tested on: TA1537; test: Bacterial reverse mutation, revertants per plate; type: cell-based, Salmonella typhimurium
Procedure: as §1, §2, §3, §4

[6] = tested on: TA98; test: Bacterial reverse mutation, revertants per plate; type: cell-based, Salmonella typhimurium
Procedure: as §1, §2, §3, §4

[7] = target: T1, A1 (Homo sapiens, UniProt P30542); test: Receptor binding profile of VSN16R; details: 10µM VSN16R
T1 construct: purchased Cerep; Chantest; DiscoveRx; Multispan; MDS Pharma Services

[8] = target: T2, D2S (Homo sapiens, UniProt P14416); test: Receptor binding profile of VSN16R; details: 10µM VSN16R
T2 construct: purchased Cerep; Chantest; DiscoveRx; Multispan; MDS Pharma Services

[9] = target: T3, ETA (Homo sapiens, UniProt P25101); test: Receptor binding profile of VSN16R; details: 10µM VSN16R
T3 construct: purchased Cerep; Chantest; DiscoveRx; Multispan; MDS Pharma Services

[10] = target: T4, H2 (Homo sapiens, UniProt P25021); test: Receptor binding profile of VSN16R; details: 10µM VSN16R
T4 construct: purchased Cerep; Chantest; DiscoveRx; Multispan; MDS Pharma Services

[11] = target: T5, Y2 (Homo sapiens, UniProt P49146); test: Receptor binding profile of VSN16R; details: 10µM VSN16R
T5 construct: purchased Cerep; Chantest; DiscoveRx; Multispan; MDS Pharma Services

[12] = tested on: Ca2+ channel (L verapamil site); test: Receptor binding profile of VSN16R; set-up: species or system human; details: 10µM VSN16R
[13] = target: CYP450 2B6 (Homo sapiens, UniProt P20813)
From the text: IC50 Inhibition of substrate binding
Inhibition of binding of either 3-cyano-7-ethoxycoumarin, dibenzylfluorescein or 7-benzyoxy-4-
(trifluoromethyl) coumarin in human enzyme transfected BTI NN-5B1-4 cells or Sf9 insect cells or
inhibition of dextromethorphan substrate to CYP450 2D6 in liver microsomes.

[14] = target: CYP450 3A7 (Homo sapiens, UniProt P24462)
[15] = tested on: rat mesenteric artery; set-up: method as in Hoi et al., 2007; details: ref Hoi et al., 2007; read-out: EC50, vasorelaxation of rat mesenteric arteries; cited from earlier work
[16] = tested on: healthy humans; test: Phase I single dose: coagulation, urinanalysis, vital signs, electrocardiograms; details: for Electrocardiogram Heart Rate / PR Duration / QRS Duration / QT Duration / RR Duration: Day 1; for Activated Partial Thrombin Time / Partial Prothrombin Time / Supine Diastolic Blood Pressure / Supine Pulse Rate / Supine Respiratory Rate / Supine Systolic Blood Pressure / Supine Temperature / Thrombin Time / Urinanalysis Ketones / Urinanalysis Specific Gravity / Urinanalysis pH / Urine Bilirubin / Urine Glucose / Urine Protein / Urine RBC: Day 2
[17] = First Mutation without Metabolic Stimulation, 17µg
[18] = First Mutation without Metabolic Stimulation, 5000µg
[19] = Second Mutation without Metabolic Stimulation, 17µg
[20] = Second Mutation without Metabolic Stimulation, 5000µg

T2 sequence (P14416 1-414 isoform P14416-2): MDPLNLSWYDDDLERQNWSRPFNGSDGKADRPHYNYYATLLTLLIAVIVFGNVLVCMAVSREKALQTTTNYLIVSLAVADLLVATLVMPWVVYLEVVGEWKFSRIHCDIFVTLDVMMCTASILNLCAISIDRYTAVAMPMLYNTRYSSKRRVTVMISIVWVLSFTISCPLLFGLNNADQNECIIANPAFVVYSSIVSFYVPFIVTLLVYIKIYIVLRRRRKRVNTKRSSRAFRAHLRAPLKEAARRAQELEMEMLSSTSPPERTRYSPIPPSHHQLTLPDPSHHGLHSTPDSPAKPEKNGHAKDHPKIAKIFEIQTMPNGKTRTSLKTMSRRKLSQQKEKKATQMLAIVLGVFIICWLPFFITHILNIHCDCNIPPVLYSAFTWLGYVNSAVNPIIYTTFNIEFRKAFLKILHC
T3 sequence (P25101 21-427): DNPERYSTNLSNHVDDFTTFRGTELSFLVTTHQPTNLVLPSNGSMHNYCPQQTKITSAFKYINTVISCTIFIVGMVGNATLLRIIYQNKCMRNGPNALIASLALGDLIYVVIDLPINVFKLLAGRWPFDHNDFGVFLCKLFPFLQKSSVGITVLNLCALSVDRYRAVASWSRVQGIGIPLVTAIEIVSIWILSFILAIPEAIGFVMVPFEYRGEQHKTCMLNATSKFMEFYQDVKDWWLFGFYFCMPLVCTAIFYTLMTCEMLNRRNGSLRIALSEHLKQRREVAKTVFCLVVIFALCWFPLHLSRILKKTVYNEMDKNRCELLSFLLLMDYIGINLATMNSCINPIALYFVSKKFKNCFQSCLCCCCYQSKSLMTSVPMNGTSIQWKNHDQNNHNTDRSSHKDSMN
T5 sequence (P49146 whole entry): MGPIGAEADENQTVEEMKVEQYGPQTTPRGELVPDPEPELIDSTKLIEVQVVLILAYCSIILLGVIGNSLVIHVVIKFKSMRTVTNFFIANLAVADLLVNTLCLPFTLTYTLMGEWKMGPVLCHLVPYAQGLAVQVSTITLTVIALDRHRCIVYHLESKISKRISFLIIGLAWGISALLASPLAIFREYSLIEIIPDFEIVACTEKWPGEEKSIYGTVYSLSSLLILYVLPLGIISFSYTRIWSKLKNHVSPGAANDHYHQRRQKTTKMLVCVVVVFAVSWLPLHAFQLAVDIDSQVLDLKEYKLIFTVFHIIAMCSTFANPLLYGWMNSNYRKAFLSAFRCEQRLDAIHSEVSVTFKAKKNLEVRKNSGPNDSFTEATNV
Sequence of CYP450 3A7 (P24462 whole entry): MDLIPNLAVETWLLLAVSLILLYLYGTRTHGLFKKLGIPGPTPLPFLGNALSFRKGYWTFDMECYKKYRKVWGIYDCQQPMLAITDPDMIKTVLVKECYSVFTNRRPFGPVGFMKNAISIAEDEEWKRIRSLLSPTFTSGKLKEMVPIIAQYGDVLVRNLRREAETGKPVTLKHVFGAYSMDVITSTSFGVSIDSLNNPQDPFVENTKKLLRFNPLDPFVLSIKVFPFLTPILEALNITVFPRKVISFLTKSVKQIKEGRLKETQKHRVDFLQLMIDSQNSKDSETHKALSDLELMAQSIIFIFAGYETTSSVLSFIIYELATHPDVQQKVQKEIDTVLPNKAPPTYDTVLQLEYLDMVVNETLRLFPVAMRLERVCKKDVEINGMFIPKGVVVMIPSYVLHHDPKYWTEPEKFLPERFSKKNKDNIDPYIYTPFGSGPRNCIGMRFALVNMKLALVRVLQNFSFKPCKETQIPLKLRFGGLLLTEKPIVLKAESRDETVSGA
Sequence of CYP450 2B6 (P20813 whole entry): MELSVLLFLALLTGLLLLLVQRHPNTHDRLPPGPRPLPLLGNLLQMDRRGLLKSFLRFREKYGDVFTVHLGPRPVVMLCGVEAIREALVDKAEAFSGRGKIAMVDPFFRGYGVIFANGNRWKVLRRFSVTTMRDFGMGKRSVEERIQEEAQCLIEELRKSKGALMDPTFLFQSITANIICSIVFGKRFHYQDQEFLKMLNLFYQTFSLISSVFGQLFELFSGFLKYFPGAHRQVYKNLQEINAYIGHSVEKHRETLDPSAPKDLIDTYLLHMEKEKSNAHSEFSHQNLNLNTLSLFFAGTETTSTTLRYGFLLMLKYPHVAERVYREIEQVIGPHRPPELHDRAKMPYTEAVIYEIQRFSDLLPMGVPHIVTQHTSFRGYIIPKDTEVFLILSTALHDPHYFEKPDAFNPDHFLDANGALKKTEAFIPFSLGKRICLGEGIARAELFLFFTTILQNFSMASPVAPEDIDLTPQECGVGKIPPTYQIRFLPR
T4 sequence (P25021 whole entry): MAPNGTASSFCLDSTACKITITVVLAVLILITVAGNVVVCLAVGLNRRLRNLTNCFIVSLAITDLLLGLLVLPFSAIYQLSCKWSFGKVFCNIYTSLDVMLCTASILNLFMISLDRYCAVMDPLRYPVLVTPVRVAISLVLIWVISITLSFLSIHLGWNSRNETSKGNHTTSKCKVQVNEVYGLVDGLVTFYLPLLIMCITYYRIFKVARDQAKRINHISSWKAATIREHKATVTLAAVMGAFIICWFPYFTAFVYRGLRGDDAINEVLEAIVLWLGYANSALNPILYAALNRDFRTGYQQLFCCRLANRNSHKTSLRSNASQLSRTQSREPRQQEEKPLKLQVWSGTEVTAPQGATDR
T1 sequence (P30542 whole entry): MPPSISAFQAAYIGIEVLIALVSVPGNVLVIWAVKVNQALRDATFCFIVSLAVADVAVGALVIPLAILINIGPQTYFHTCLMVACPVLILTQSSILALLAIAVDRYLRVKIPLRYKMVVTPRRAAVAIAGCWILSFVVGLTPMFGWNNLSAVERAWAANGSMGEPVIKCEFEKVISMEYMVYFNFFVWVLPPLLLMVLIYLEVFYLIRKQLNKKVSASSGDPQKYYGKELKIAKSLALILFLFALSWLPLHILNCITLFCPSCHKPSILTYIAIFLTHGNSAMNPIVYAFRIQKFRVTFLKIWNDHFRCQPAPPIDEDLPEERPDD

C[C@H](CO)NC(=O)c1cccc(/C=C\CCCC(=O)N(C)C)c1 [VSN16R]
Effect on βγ‐methylene ATP‐induced contractions [1]: does not inhibit; also recorded: did not affect
Albumin ([2]; 25mg): 42 ± 1 g/L
Amylase ([2]; 25mg): 65 ± 21 U/L
Basophils ([2]; 25mg): 0.0 ± 0.0 109 cells/L
Bilirubin ([2]; 25mg): 14.9 ± 6.1 µmol/L
Calcium ([2]; 25mg): 2.40 ± 0.08 mmol/L
Chloride ([2]; 25mg): 104 ± 2 mmol/L
Cholesterol ([2]; 25mg): 4.79 ± 0.77 mmol/L
Creatinine ([2]; 25mg): 84 ± 10 µmol/L
Eosinophils ([2]; 25mg): 0.2 ± 0.1 109 cells/L
Globulin ([2]; 25mg): 28.8 ± 5.6 g/L
Glucose ([2]; 25mg): 4.78 ± 0.58 mmol/L
Haemoglobin ([2]; 25mg): 9.4 ± 0.5 mmol/L
Hematocrit ([2]; 25mg): 0.425 ± 0.021
Lymphocytes ([2]; 25mg): 1.9 ± 0.6 109 cells/L
Magnesium ([2]; 25mg): 0.8 ± 0.0 mmol/L
Monocytes ([2]; 25mg): 0.5 ± 0.1 109 cells/L
Neutrophils ([2]; 25mg): 2.5 ± 0.6 109 cells/L
Phosphate ([2]; 25mg): 1.20 ± 0.10 mmol/L
Potassium ([2]; 25mg): 4.27 ± 0.18 mmol/L
Red Blood Cells ([2]; 25mg): 4.94 ± 0.30 1012 cells/L
Sodium ([2]; 25mg): 141 ± 2 mmol/L
Triglycerides ([2]; 25mg): 1.26 ± 0.25 mmol/L
Urea ([2]; 25mg): 4.4 ± 0.9 mmol/L
White Blood Cells ([2]; 25mg): 5.2 ± 1.2 109 cells/L
Albumin ([2]; 800mg): 42 ± 1 g/L
Amylase ([2]; 800mg): 50 ± 12 U/L
Basophils ([2]; 800mg): 0.0 ± 0.0 109 cells/L
Bilirubin ([2]; 800mg): 11.4 ± 3.0 µmol/L
Calcium ([2]; 800mg): 2.35 ± 0.04 mmol/L
Chloride ([2]; 800mg): 104 ± 1 mmol/L
Cholesterol ([2]; 800mg): 4.68 ± 0.78 mmol/L
Creatinine ([2]; 800mg): 84 ± 10 µmol/L
Eosinophils ([2]; 800mg): 0.3 ± 0.1 109 cells/L
Globulin ([2]; 800mg): 28.9 ± 1.2 g/L
Glucose ([2]; 800mg): 5.51 ± 0.92 mmol/L
Haemoglobin ([2]; 800mg): 9.3 ± 0.5 mmol/L
Hematocrit ([2]; 800mg): 0.421 ± 0.016
Lymphocytes ([2]; 800mg): 1.8 ± 0.6 109 cells/L
Magnesium ([2]; 800mg): 0.8 ± 0.1 mmol/L
Monocytes ([2]; 800mg): 0.5 ± 0.1 109 cells/L
Neutrophils ([2]; 800mg): 2.7 ± 1.2 109 cells/L
Phosphate ([2]; 800mg): 1.02 ± 0.10 mmol/L
Potassium ([2]; 800mg): 4.19 ± 0.25 mmol/L
Red Blood Cells ([2]; 800mg): 4.87 ± 0.30 1012 cells/L
Sodium ([2]; 800mg): 142 ± 3 mmol/L
Triglycerides ([2]; 800mg): 1.55 ± 0.61 mmol/L
Urea ([2]; 800mg): 4.7 ± 0.4 mmol/L
White Blood Cells ([2]; 800mg): 5.0 ± 1.1 109 cells/L
Revertants per plate [3, 17]: 79.3 ± 7.6
Revertants per plate [3, 18]: 79.3 ± 5.5
Revertants per plate [3, 19]: 85.7 ± 6.7
Revertants per plate [3, 20]: 99.3 ± 5.5
Revertants per plate [4, 17]: 9.0 ± 6.6
Revertants per plate [4, 18]: 13.7 ± 2.1
Revertants per plate [4, 19]: 14.0 ± 5.6
Revertants per plate [4, 20]: 11.3 ± 3.5
Revertants per plate [5, 17]: 13.3 ± 1.5
Revertants per plate [5, 18]: 7.0 ± 1.7
Revertants per plate [5, 19]: 12.3 ± 2.9
Revertants per plate [5, 20]: 10.3 ± 2.9
Revertants per plate [6, 17]: 15.3 ± 4.7
Revertants per plate [6, 18]: 18.3 ± 7.1
Revertants per plate [6, 19]: 23.3 ± 1.2
Revertants per plate [6, 20]: 23.7 ± 1.2
Activity [7]: Negligible Activity
Activity [8]: Negligible Activity
Activity [9]: Negligible Activity
Activity [10]: Negligible Activity
Activity [11]: Negligible Activity
Activity [12]: Negligible Activity
IC50 [13]: > 10 µM
IC50 [14]: > 10 µM
EC50 [15]: 0.11 µM
Electrocardiogram Heart Rate ([16]; 25mg): 59 ± 12 beats per min
PR Duration ([16]; 25mg): 184 ± 20 ms
QRS Duration ([16]; 25mg): 98 ± 9 ms
QT Duration ([16]; 25mg): 388 ± 26 ms
RR Duration ([16]; 25mg): 1044 ± 185 ms
Activated Partial Thrombin Time ([16]; 25mg): 26.4 ± 0.9 s
Partial Prothrombin Time ([16]; 25mg): 10.8 ± 0.3 s
Supine Diastolic Blood Pressure ([16]; 25mg): 65 ± 4 mmHg
Supine Pulse Rate ([16]; 25mg): 61 ± 15 beats per min
Supine Respiratory Rate ([16]; 25mg): 14 ± 2 Breath/min
Supine Systolic Blood Pressure ([16]; 25mg): 117 ± 9 mmHg
Supine Temperature ([16]; 25mg): 36.6 ± 0.2 ˚C
Thrombin Time ([16]; 25mg): 16.2 ± 0.8 s
Urinanalysis Ketones ([16]; 25mg): 0.0 ± 0.0 mmol/L
Urinanalysis Specific Gravity ([16]; 25mg): 1.016 ± 0.012
Urinanalysis pH ([16]; 25mg): 7.0 ± 0.6
Urine Bilirubin ([16]; 25mg): 0.0 ± 0.0 µmol/L
Urine Glucose ([16]; 25mg): 0.0 ± 0.0 mmol/L
Urine Protein ([16]; 25mg): 0.08 ± 0.10 g/L
Urine RBC ([16]; 25mg): 0.0 ± 0.0 mg/L
Electrocardiogram Heart Rate ([16]; 800mg): 67 ± 8 beats per min
PR Duration ([16]; 800mg): 164 ± 16 ms
QRS Duration ([16]; 800mg): 98 ± 7 ms
QT Duration ([16]; 800mg): 383 ± 19 ms
RR Duration ([16]; 800mg): 903 ± 122 ms
Activated Partial Thrombin Time ([16]; 800mg): 24.9 ± 1.9 s
Partial Prothrombin Time ([16]; 800mg): 10.9 ± 0.5 s
Supine Diastolic Blood Pressure ([16]; 800mg): 71 ± 9 mmHg
Supine Pulse Rate ([16]; 800mg): 65 ± 9 beats per min
Supine Respiratory Rate ([16]; 800mg): 16 ± 2 Breath/min
Supine Systolic Blood Pressure ([16]; 800mg): 118 ± 10 mmHg
Supine Temperature ([16]; 800mg): 36.6 ± 0.2 ˚C
Thrombin Time ([16]; 800mg): 15.9 ± 1.2 s
Urinanalysis Ketones ([16]; 800mg): 0.0 ± 0.0 mmol/L
Urinanalysis Specific Gravity ([16]; 800mg): 1.017 ± 0.009
Urinanalysis pH ([16]; 800mg): 6.0 ± 0.4
Urine Bilirubin ([16]; 800mg): 0.0 ± 0.0 µmol/L
Urine Glucose ([16]; 800mg): 0.0 ± 0.0 mmol/L
Urine Protein ([16]; 800mg): 0.06 ± 0.08 g/L
Urine RBC ([16]; 800mg): 0.0 ± 0.0 mg/L
